Patent US20140235585A1, “SUBSTITUTED DIARYL DERIVATIVES AS SPHINGOSINE RECEPTOR MODULATORS” (ALLERGAN, INC., priority 2013, published 2014)

Target: T1, human S1P1 receptor (Homo sapiens, UniProt P21453)
T1 construct: expressed in transfected cells; membranes from cells stably expressing the S1P1 receptor
Assay: GTP γ35S binding assay for S1P1 activity
Type: biochemical
Details: Activity potency: S1P1 receptor from GTP γ35S; membranes of cells stably expressing the S1P1 receptor; agonist-induced binding
Description: Compounds were tested for S1P1 activity using the GTP γ^35S binding assay. These compounds may be assessed for their ability to activate or block activation of the human S1P1 receptor in cells stably expressing the S1P1 receptor. GTP γ^35S binding was measured in the medium containing (mM) HEPES 25, pH 7.4, MgCl2 10, NaCl 100, dithitothreitol 0.5, digitonin 0.003%, 0.2 nM GTP γ^35S, and 5 μg membrane protein in a volume of 150 μl. Test compounds were included in the concentration range from 0.08 to 5,000 nM unless indicated otherwise. Membranes were incubated with 100 μM 5′-adenylylimmidodiphosphate for 30 min, and subsequently with 10 μM GDP for 10 min on ice. Drug solutions and membrane were mixed, and then reactions were initiated by adding GTP γ^35S and continued for 30 min at 25° C. Reaction mixtures were filtered over Whatman GF/B filters under vacuum, and washed three times with 3 mL of ice-cold buffer (HEPES 25, pH7.4, MgCl2 10 and NaCl 100). Filters were dried and mixed with scintillant, and counted for ^35S activity using a β-counter. Agonist-induced GTP γ^35S binding was obtained by subtracting that in the absence of agonist. Binding data were analyzed using a non-linear regression method. In case of antagonist assay, the reaction mixture contained 10 nM S1P in the presence of test antagonist at concentrations ranging from 0.08 to 5000 nM.

T1 sequence (P21453 whole entry): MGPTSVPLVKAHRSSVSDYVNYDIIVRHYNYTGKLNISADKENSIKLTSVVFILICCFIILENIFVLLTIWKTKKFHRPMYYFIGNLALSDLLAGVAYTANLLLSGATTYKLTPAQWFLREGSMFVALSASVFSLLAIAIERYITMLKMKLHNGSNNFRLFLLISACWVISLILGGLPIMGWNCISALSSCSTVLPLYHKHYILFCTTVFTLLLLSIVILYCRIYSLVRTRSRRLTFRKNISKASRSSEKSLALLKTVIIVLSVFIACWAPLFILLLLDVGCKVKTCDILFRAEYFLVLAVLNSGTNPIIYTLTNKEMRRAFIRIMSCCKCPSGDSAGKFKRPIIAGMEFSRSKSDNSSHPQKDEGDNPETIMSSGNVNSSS

| SMILES | EC50 |
| --- | --- |
| O=P(O)(O)CCCNCc1ccc(CCSc2ncc(-c3ccccc3)n2-c2ccccc2)cc1 [Compound 3, {3-[(4-{2-[(1,5-diphenyl-1H-imidazol-2-yl)thio]ethyl}benzyl)amino]propyl}phosphonic acid] | 86 nM |
| O=P(O)(O)CCCNCc1ccc(CC/N=c2\scc(-c3ccccc3)n2-c2ccccc2)cc1 [Compound 1, (3-{[4-(2-{[(2Z)-3,4-diphenyl-1,3-thiazol-2(3H)-ylidene]amino}ethyl)benzyl]amino}propyl)phosphonic acid] | 31 nM |
| O=C(O)CCNCc1ccc(CC/N=c2\scc(-c3ccccc3)n2-c2ccccc2)cc1 [Compound 2, 3-{[4-(2-{[(2Z)-3,4-diphenyl-1,3-thiazol-2(3H)-ylidene]amino}ethyl)benzyl]amino}propanoic acid] | 658 nM |
